Measurements as given in patent publication US11478466B2, “Small molecule promoting osteoblast differentiation” (Cornell University, priority 2019, dated 2022).

Test system: alkaline phosphatase (ALP)
Conditions: primary screen, 10 μM, C2C12, 4 days; for RFU Score Threshold ≥ 800: Ex 450/Em 580 nm, rank in brackets not taken; for Fluorescence Z Score Threshold ≥ 10: Z score on DMSO control wells; for NPA Score Threshold ≥ 5.0 (normalized percent activation): normalized against rhBMP4 positive and DMSO negative controls

| Structure (SMILES) | RFU Score Threshold ≥ 800 | Fluorescence Z Score Threshold ≥ 10 | NPA Score Threshold ≥ 5.0 (normalized percent activation) |
| --- | --- | --- | --- |
| c1ccc2c(c1)nc(NC1CCCC1)c1nncn12 [RU-0007138] | Below Threshold | 17.92 (10) | Below Threshold |
| COC(=O)c1ccc(NC(=O)c2c3c(nn2C2CCS(=O)(=O)C2)CCC3)cc1 (stereo not drawn) [RU-0159762] | 855 (22) | 21.33 (6) | Below Threshold |
| CC1(C)C(=O)NCCN1C(=O)/C=C(/c1ccc(Cl)cc1)C(F)(F)F [RU-0213635] | 1170 (5) | 15.00 (14) | Below Threshold |
| Cc1cc(C(=O)NC2(C#N)CC2)ccc1NC(=O)CC(C)C [RU-0213672] | 1040 (9) | 12.15 (20) | Below Threshold |
| CCC(C)(C)C(=O)N1CCC(CO)(CCOc2ccccc2)CC1 [RU-0220454] | 811 (31) | Below Threshold | Below Threshold |
| Cc1ccc(CN2CCN(Cc3ccccc3CO)CC2)n1-c1cccnc1 [RU-0221380] | 922 (13) | 16.89 (11) | Below Threshold |
| CN1CCC2(CC1)CN(C(=O)COCC1CCCO1)CCCN2C (stereo not drawn) [RU-0224115] | 900 (17) | Below Threshold | Below Threshold |
| O=C(c1ccc2c(c1)OCO2)C1CCCN(C(=O)c2cnn(Cc3ccccc3)c2)C1 (stereo not drawn) [RU-0227215] | 1310 (4) | 27.39 (4) | Below Threshold |
| OCc1ccccc1-c1ccc(NC2CCCC2)nn1 [RU-0227303] | Below Threshold | 13.68 (18) | Below Threshold |
| COc1cccc(C2CCN(c3ncnc4c3CCNC4)C2)c1OC (stereo not drawn) [RU-0227959] | 815 (30) | Below Threshold | Below Threshold |
| Cc1ccccc1N1CCN(C(=O)c2ccc(C#CC(C)(C)O)o2)C(C)C1 (stereo not drawn) [RU-0228950] | 921 (14) | 15.58 (13) | Below Threshold |
| COc1ccc(-n2c(Cc3cccnc3)n[nH]c2=O)c(C)c1 [RU-0230205] | 1060 (8) | 19.99 (7) | Below Threshold |
| CCCc1ccc(-c2ccc(C(=O)N3C[C@@H](N)C[C@H]3C(=O)NC)cc2)cc1 [RU-0232318] | 804 (35) | Below Threshold | Below Threshold |
| Cc1nc[nH]c1CN1CCOc2c(O)cc(-c3cccc(Cl)c3)cc2C1 [RU-0236543] | 821 (27) | Below Threshold | Below Threshold |
| O[C@@H]1CNCC[C@H]1CNCc1ccccc1-c1ccccc1 [RU-0236855] | 810 (32) | Below Threshold | Below Threshold |
| CSc1ncc(C(=O)NCc2cc(C)cc3c(C)c(C)[nH]c23)cn1 [RU-0239453] | 809 (33) | Below Threshold | Below Threshold |
| CCC(OC)C(=O)NCc1ccc2[nH]c(-c3ccccc3F)c(C)c2c1 (stereo not drawn) [RU-0244068] | 836 (26) | Below Threshold | Below Threshold |
